Measurements: PMC4697807, “Novel Zn^2+ Modulated GPR39 Receptor Agonists Do Not Drive Acute Insulin Secretion in Rodents” (PLoS ONE, 2015)
Like-named read-outs stand apart in the source and are kept apart here.

Tests used:
GPR39 [1] = biological target: T1, GPR39 (Homo sapiens, UniProt O43194); experiment: DMR positive allosteric modulator (PAM) experiments, compound and Zn^2+ interdependencies; format: cell-based; design: Full length human (AF034633), rat (DM091294) and mouse (BC085285) GPR39; expressed in transfected cells
T1 sequence (O43194 1-453): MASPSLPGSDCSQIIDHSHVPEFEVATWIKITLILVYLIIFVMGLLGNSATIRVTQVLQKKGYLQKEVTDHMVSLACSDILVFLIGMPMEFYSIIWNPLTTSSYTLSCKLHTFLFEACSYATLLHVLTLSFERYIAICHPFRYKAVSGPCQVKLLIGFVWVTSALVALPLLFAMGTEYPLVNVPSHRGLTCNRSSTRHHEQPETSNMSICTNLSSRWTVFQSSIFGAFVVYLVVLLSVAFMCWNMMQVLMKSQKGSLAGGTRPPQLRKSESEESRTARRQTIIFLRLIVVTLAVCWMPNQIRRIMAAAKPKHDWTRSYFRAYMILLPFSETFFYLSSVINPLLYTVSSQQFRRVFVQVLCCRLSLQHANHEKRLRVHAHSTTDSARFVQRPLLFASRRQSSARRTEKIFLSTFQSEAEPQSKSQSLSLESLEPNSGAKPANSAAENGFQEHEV
Description: DMR assays were performed using an Epic instrument (Corning Inc., Corning, NY). 12,000 cells per well were cultured for 24 h in 384-well fibronectin-coated Epic biosensor plates (Corning). On the day of experiment, culture medium was removed and replaced with 30 μl buffer A (HBSS, HEPES 20 mM pH7.4, 1% DMSO, 0.01% BSA) using an EL406 (Bio-Tek). Plates were incubated at 26 °C for 1 h inside the Epic to allow for temperature equilibration. A baseline was read for 2 min, and then 15 μl compounds in buffer A were added using a CyBi-Well vario (CyBio) and DMR was detected during 45 min.
Concentration response curves for the interaction between ortosteric and allosteric ligands in the DNR assay were globally fitted to the operational model of allosterism and agonism as described in Leach et al.. Binding data were fitted using one site or two site binding models.
Utilizing the DMR platform, positive allosteric modulator (PAM) experiments were performed in order to more accurately determine the influences of Zn^2+ on the three compounds, see Fig 4. Compound dose responses were generated at 10 different Zn^2+ concentrations, spanning 0 to 30 μM. The presence of Zn^2+ increased potencies of compounds up to 10000-fold. Data were initially globally fitted to the operational model of allosterism and agonism described by Leach et al. However, fits obtained were not of sufficient quality. We therefore decided to calculate modulation in a more simplistic way, here called PAM EC50 and defined as the concentration of modulator (Zn^2+) causing half maximum potentiation of agonist potency.

GPR39 [2] = biological target: T1, GPR39; experiment: Back-scattering interferometry (BSI) binding assay, HEK293s-hGPR39 membranes; design: Full length human (AF034633), rat (DM091294) and mouse (BC085285) GPR39; expressed in transfected cells; host or cells: HEK293s (ATCC CRL-1573), pIRESneo3 vector, selected clones
Description: Membranes (1.3 mg protein/ml) from HEK293s-hGPR39 and untransfected HEK293s cells were diluted 11-fold in 50 mM Tris, pH 7.5, 5 μM ZnCl2, 0.3% DMSO. The compounds were diluted from 10 mM in DMSO to the final maximum stock concentration of 30 μM with 50 mM Tris, pH 7.5, 5 μM ZnCl2, 24.6 mM sucrose. A 3-fold serial dilution was performed with the compounds and refractive index-matched assay buffer, 50 mM Tris, pH 7.5, 5 μM ZnCl2, 24.6 mM sucrose, 0.3% DMSO. The compound serial dilutions were mixed 1:1 with either the GPR39 or wild type membrane fractions in a 96-well polypropylene microplate (Eppendorf, Hauppauge, NY). After a 2 hour incubation at room temperature, the plate was analyzed on a pre-commercial prototype BSI instrument (Molecular Sensing, Inc., Nashville, TN). Binding signal was expressed as the phase shift in the interference fringe patterns on a CMOS camera as measured in milliradians. The data from the wild type membrane fractions was subtracted from the GPR39-expressing fractions point by point to obtain the specific binding interaction of the compounds with GPR39 and fit to one-site binding or two-site binding models using built-in models in Graphpad Prism to determine K D values for each compound.

[3] = Isothermal titration calorimetry (ITC) of compound with ZnCl2; conditions: ITC at 30°C; single site binding model; ± SD; read-out: K D (Zn^2+-interaction)
Description: To determine the binding affinities of the discussed compounds for Zn^2+, isothermal titration calorimetry experiments were conducted on a MicroCal ITC-200 system (Malvern Instruments) at a temperature of 30°C. The compounds, provided as a DMSO stock solution of 10 mM, were diluted in 50 mM HEPES (pH 7.4) and 150 mM NaCl to reach a final nominal concentration of 400 μM (= 4% (v/v) final DMSO concentration). Complete titration of the compounds was typically achieved by injecting 27 x 1.3 μl aliquots of 5 mM ZnCl2 provided in a matching buffer. The thermodynamic binding parameters were extracted by non-linear regression analysis of the binding isotherms (Microcal Origin version 7.0 software package). A single site binding model was applied, yielding binding enthalpy (ΔH), stoichiometry (n), entropy (ΔS), and association constant (Ka). All experiments have been performed in triplicate to allow for error estimations.

[4] = Zn^2+ binding, two site binding model
[5] = presence of 5 μM Zn^2+, one site binding model, read-out: K D ± SE

With [Zn+2] [Zn^2+] the “Emax for Zn^2+ alone, of Emax for Zn^2+ together with any of the GPR39 agonists” value (GPR39 [1]; Zn^2+ alone) was “approximately 35%”, the “pK D1 (high affinity site)” value (GPR39 [2]; [4]) was 6.27 and the “pK D2 (low affinity site)” value (GPR39 [2]; [4]) was 3.68. For the same compound, the Kd (GPR39 [2]; Zn^2+ binding, two site binding model, read-out: K D1 (high affinity site) ± SE) was 530 nM and the Kd (GPR39 [2]; Zn^2+ binding, two site binding model, read-out: K D2 (low affinity site) ± SE) was 211000 nM.

For N#Cc1ccc(OCCn2ccnc2)c(OCCn2ccnc2)c1 [AZ1395, 3,4-bis-(2-imidazol-1-ylethoxy)-benzonitrile], the EC50 (GPR39 [1]; [Zn2+] μM: 0) was 3 µM, the EC50 (GPR39 [1]; [Zn2+] μM: 1e-7) was 2.6 µM and the EC50 (GPR39 [1]; [Zn2+] μM: 5e-7) was 2.4 µM. The EC50 (GPR39 [1]; [Zn2+] μM: 1e-6) was 1.7 µM, the EC50 (GPR39 [1]; [Zn2+] μM: 5e-6) was 0.057 µM and the EC50 (GPR39 [1]; [Zn2+] μM: 7e-6) was 0.015 µM. It also gave an EC50 (GPR39 [1]; [Zn2+] μM: 1e-5) of 0.014 µM, an EC50 (GPR39 [1]; [Zn2+] μM: 2e-5) of 0.0035 µM and an EC50 (GPR39 [1]; [Zn2+] μM: 3e-5) of 0.0027 µM. For the same compound, the EC50 (GPR39 [1]; [Zn2+] μM: 3) was 0.16 µM, the Emax (GPR39 [1]; in the absence of Zn^2+) was ~75% and the Kd (GPR39 [2]; [5]) was 233 ± 70 nM. It also gave a Kd [3] of 52.1 ± 9.1 µM.

For Cc1nc(-c2nc3c(c(=O)[nH]2)CN(C(=O)c2cccc(Cl)c2F)CC3)cs1 [AZ7914, 6-(3-chloro-2-fluoro-benzoyl)-2-(2-methylthiazol-4-yl)-3,5,7,8-tetrahydropyrido-[4,3-d]pyrimidin-4-one], the EC50 (GPR39 [1]; [Zn2+] μM: 0) was > 33 µM, the EC50 (GPR39 [1]; [Zn2+] μM: 1e-7) was > 33 µM and the EC50 (GPR39 [1]; [Zn2+] μM: 5e-7) was > 33 µM. For the same compound, the EC50 (GPR39 [1]; [Zn2+] μM: 1e-6) was > 33 µM, the EC50 (GPR39 [1]; [Zn2+] μM: 5e-6) was 0.29 µM and the EC50 (GPR39 [1]; [Zn2+] μM: 7e-6) was 0.09 µM. The EC50 (GPR39 [1]; [Zn2+] μM: 1e-5) was 0.042 µM, the EC50 (GPR39 [1]; [Zn2+] μM: 2e-5) was 0.0095 µM and the EC50 (GPR39 [1]; [Zn2+] μM: 3e-5) was 0.0063 µM. For the same compound, the EC50 (GPR39 [1]; [Zn2+] μM: 3) was 1.6 µM, the Kd (GPR39 [2]; [5]) was 192 ± 85 nM and the Kd [3] was 30.6 ± 19.1 µM.

For Cc1nc2c(C(=O)O)cnn2c(O)c1Cc1ccc(Cl)cc1 [AZ4237, 6-[(4-chlorophenyl)methyl]-7-hydroxy-5-methyl-pyrazolo[1,5-a]pyrimidine-3-carboxylic acid], the EC50 (GPR39 [1]; [Zn2+] μM: 0) was > 33 µM, the EC50 (GPR39 [1]; [Zn2+] μM: 1e-7) was > 33 µM and the EC50 (GPR39 [1]; [Zn2+] μM: 5e-7) was > 33 µM. It also gave an EC50 (GPR39 [1]; [Zn2+] μM: 1e-6) of 8.3 µM, an EC50 (GPR39 [1]; [Zn2+] μM: 5e-6) of 0.058 µM and an EC50 (GPR39 [1]; [Zn2+] μM: 7e-6) of 0.045 µM. The EC50 (GPR39 [1]; [Zn2+] μM: 1e-5) was 0.015 µM, the EC50 (GPR39 [1]; [Zn2+] μM: 2e-5) was 0.0074 µM and the EC50 (GPR39 [1]; [Zn2+] μM: 3e-5) was 0.003 µM. The EC50 (GPR39 [1]; [Zn2+] μM: 3) was 0.58 µM, the Kd (GPR39 [2]; [5]) was 48 ± 18 nM and the Kd [3] was 8.72 ± 1.06 µM.
